Assay results: patent US11214803B2, “Modulators of YAP1 expression” (Ionis Pharmaceuticals, Inc., priority 2019, dated 2022)
Strand notation (5' to 3'): a small letter for the sugar, then the base; units joined by * are phosphorothioate-linked, units joined directly phosphodiester-linked; [ ] holds rarer units or linkages, { } end groups; capitals alone tell only the bases. k = constrained ethyl (cEt); [5mC] = 5-methylcytosine; d = 2'-deoxy (DNA)

Legend:
Type in all cases: cell-based, human
SNU-899 cells = assay: Cell proliferation assay in SNU-899 cells, CellTiter-Glo (Example 43); conditions: free uptake, approximately 144 hours
Procedure: Modified oligonucleotides described in the studies above were tested at various doses in laryngeal squamous cell carcinoma cell line SNU-899. A control oligonucleotide 792169, described herein above, was also tested.
(§1) Cultured SNU-899 cells at a density of 1000 cells/well were treated using free uptake with modified oligonucleotides diluted to concentrations described in the tables below. After approximately 144 hours, cell proliferation was measured using the luminescent cell viability CellTiter-Glo® 2.0 Assay (Promega). Results are presented in the tables below as percent control of the amount of luminescence in samples treated with modified oligonucleotides relative to untreated control cells (% UTC).

SCC-9 cells = assay: Cell proliferation assay in SCC-9 cells, CellTiter-Glo (Example 40); conditions: free uptake, approximately 144 hours
Procedure: (§2) Modified oligonucleotides described in the studies above were tested at various doses in tongue squamous cell carcinoma cell line SCC-9. A control oligonucleotide 792169, described herein above, was also tested.
as §1, with “SCC-9” for “SNU-899”

BICR56 cells = assay: Cell proliferation assay in BICR56 cells, CellTiter-Glo (Example 33); conditions: free uptake, approximately 144 hours
Procedure: Modified oligonucleotides described in the studies above were tested at various doses in squamous cell carcinoma adherent keratinocyte cell line BICR56. A control oligonucleotide 792169 was also tested.
as §1, with “BICR56” for “SNU-899”

Yap1 mRNA [1] = assay: Yap1 mRNA in SNU-1214 cells, RNA analysis (Example 46); conditions: free uptake, approximately 48 hours
Procedure: Modified oligonucleotides described in the studies above were tested at various doses in laryngeal squamous cell carcinoma cell line […]. A control oligonucleotide 792169, described herein above, was also tested.
(§3) Cultured SNU-1214 cells at a density of 5000 cells per well were treated using free uptake with modified oligonucleotides diluted to concentrations described in the tables below. After approximately 48 hours, Yap1 mRNA levels were measured as previously described using the Human Yap1 primer-probe set RTS4814. Yap1 mRNA levels were normalized to actin-beta content, as measured by primer probe set RTS5002. Results are presented in the tables below as percent control of the amount of Yap1 mRNA relative to untreated control cells (% UTC).

CAL27 cells = assay: Cell proliferation assay in CAL27 cells, CellTiter-Glo (Example 37); conditions: free uptake, approximately 144 hours
Procedure: Modified oligonucleotides described in the studies above were tested at various doses in tongue squamous cell carcinoma line CAL27. A control oligonucleotide 792169, described herein above, was also tested.
as §1, with “CAL27” for “SNU-899”

Yap1 mRNA [2] = assay: Yap1 mRNA in SCC-9 cells, RNA analysis (Example 40); conditions: free uptake, approximately 48 hours
Procedure: as §2
as §3, with “SCC-9” for “SNU-1214”

SCC25 cells = assay: Cell proliferation assay in SCC25 cells, CellTiter-Glo (Example 25); conditions: free uptake, 144 hours
Procedure: Modified oligonucleotides described in the studies above were tested at various doses in squamous cell carcinoma cell SCC25. A control oligonucleotide 792169 (a 3-10-3 cET gapmer with a full phosphorothioate backbone, […], designated herein as SEQ ID No.: 2940; is not complementary to any known human gene) was also tested.
as §1, with “SCC25” for “SNU-899”, “1,000” for “1000”

Yap1 mRNA [3] = assay: Yap1 mRNA in UPCI:SCC090 cells, RNA analysis (Example 47); conditions: free uptake, approximately 48 hours
Procedure: Modified oligonucleotides described in the studies above were tested at various doses in tongue squamous cell carcinoma cell line UPCI:SCC090. A control oligonucleotide 792169, described herein above, was also tested.
as §3, with “UPCI:SCC090” for “SNU-1214”

Substance | Antiproliferative effect (cell proliferation, luminescence) (SNU-899 cells; 0.04 μM) [% UTC] | Antiproliferative effect (cell proliferation, luminescence) (SNU-899 cells; 0.2 μM) [% UTC] | Antiproliferative effect (cell proliferation, luminescence) (SNU-899 cells; 1 μM) [% UTC] | Antiproliferative effect (cell proliferation, luminescence) (SNU-899 cells; 5 μM) [% UTC] | Antiproliferative effect (cell proliferation, luminescence) (SCC-9 cells; 0.04 μM) [% UTC] | Antiproliferative effect (cell proliferation, luminescence) (SCC-9 cells; 0.2 μM) [% UTC] | Antiproliferative effect (cell proliferation, luminescence) (SCC-9 cells; 1 μM) [% UTC] | Antiproliferative effect (cell proliferation, luminescence) (SCC-9 cells; 5 μM) [% UTC] | Antiproliferative effect (cell proliferation, luminescence) (BICR56 cells; 0.04 μM) [% UTC] | Antiproliferative effect (cell proliferation, luminescence) (BICR56 cells; 0.2 μM) [% UTC] | Antiproliferative effect (cell proliferation, luminescence) (BICR56 cells; 1 μM) [% UTC] | Antiproliferative effect (cell proliferation, luminescence) (BICR56 cells; 5 μM) [% UTC] | human Yap1 mRNA expression (Yap1 mRNA [1]; 0.04 μM) [% UTC] | human Yap1 mRNA expression (Yap1 mRNA [1]; 0.2 μM) [% UTC] | human Yap1 mRNA expression (Yap1 mRNA [1]; 1 μM) [% UTC] | human Yap1 mRNA expression (Yap1 mRNA [1]; 5 μM) [% UTC] | Antiproliferative effect (cell proliferation, luminescence) (CAL27 cells; 0.08 μM) [% UTC] | Antiproliferative effect (cell proliferation, luminescence) (CAL27 cells; 0.4 μM) [% UTC] | Antiproliferative effect (cell proliferation, luminescence) (CAL27 cells; 2 μM) [% UTC] | Antiproliferative effect (cell proliferation, luminescence) (CAL27 cells; 10 μM) [% UTC] | also measured
CGCCGATAAGGTACAC (cEt gapmer, phosphorothioate backbone, further chemistry not given here) [ION 792169, reference compound] | 90 | 94 | 96 | 86 | 104 | 111 | 102 | 94 | 106 | 100 | 92 | 87 | 97 | 104 | 106 | 109 | 96 | 102 | 103 | 90 | human Yap1 mRNA expression (Yap1 mRNA [2]; 0.04 μM): 86 % UTC; human Yap1 mRNA expression (Yap1 mRNA [2]; 0.2 μM): 94 % UTC; human Yap1 mRNA expression (Yap1 mRNA [2]; 1 μM): 96 % UTC; human Yap1 mRNA expression (Yap1 mRNA [2]; 5 μM): 101 % UTC; cell proliferation (luminescence) % UTC (SCC25 cells; 0.04 μM): 103 % UTC; cell proliferation (luminescence) % UTC (SCC25 cells; 0.2 μM): 104 % UTC; cell proliferation (luminescence) % UTC (SCC25 cells; 1 μM): 100 % UTC; cell proliferation (luminescence) % UTC (SCC25 cells; 5 μM): 88 % UTC; human Yap1 mRNA expression (Yap1 mRNA [3]; 0.04 μM): 100 % UTC; human Yap1 mRNA expression (Yap1 mRNA [3]; 0.2 μM): 108 % UTC; human Yap1 mRNA expression (Yap1 mRNA [3]; 1 μM): 112 % UTC; human Yap1 mRNA expression (Yap1 mRNA [3]; 5 μM): 84 % UTC
715487 (kA*kT*kT*dA*d[5mC]*dT*dT*d[5mC]*dA*dT*dA*dG*d[5mC]*kT*kT*kA) [compound 715487] | 82 | 78 | 71 | 62 | 97 | 73 | 51 | 34 | 70 | 26 | 9 | 4 | 71 | 36 | 16 | 9 | 95 | 85 | 67 | 33 | human Yap1 mRNA expression (Yap1 mRNA [2]; 0.04 μM): 74 % UTC; human Yap1 mRNA expression (Yap1 mRNA [2]; 0.2 μM): 44 % UTC; human Yap1 mRNA expression (Yap1 mRNA [2]; 1 μM): 21 % UTC; human Yap1 mRNA expression (Yap1 mRNA [2]; 5 μM): 11 % UTC; human Yap1 mRNA expression (Yap1 mRNA [3]; 0.04 μM): 70 % UTC; human Yap1 mRNA expression (Yap1 mRNA [3]; 0.2 μM): 37 % UTC; human Yap1 mRNA expression (Yap1 mRNA [3]; 1 μM): 26 % UTC; human Yap1 mRNA expression (Yap1 mRNA [3]; 5 μM): 14 % UTC
